Values quoted from earlier work in patent US20130085131A1, “HETEROCYCLIC COMPOUNDS AND THEIR USES” (Amgen Inc., priority 2010, published 2013).

How the values were obtained:
[1] = test system: model of systemic lupus erythematosis; settings: in vivo
[2] = test system: mouse model of rheumatoid arthritis
murine model of asthma = settings: ovalbumin-induced airway inflammation
[3] = test system: murine model of allergic disease; settings: absence of functional delta (IC 87114 and p110δ D910A mice)
p110δ = biological target: T1, p110δ (Homo sapiens, UniProt O00329)
T1 sequence (O00329 1-1044): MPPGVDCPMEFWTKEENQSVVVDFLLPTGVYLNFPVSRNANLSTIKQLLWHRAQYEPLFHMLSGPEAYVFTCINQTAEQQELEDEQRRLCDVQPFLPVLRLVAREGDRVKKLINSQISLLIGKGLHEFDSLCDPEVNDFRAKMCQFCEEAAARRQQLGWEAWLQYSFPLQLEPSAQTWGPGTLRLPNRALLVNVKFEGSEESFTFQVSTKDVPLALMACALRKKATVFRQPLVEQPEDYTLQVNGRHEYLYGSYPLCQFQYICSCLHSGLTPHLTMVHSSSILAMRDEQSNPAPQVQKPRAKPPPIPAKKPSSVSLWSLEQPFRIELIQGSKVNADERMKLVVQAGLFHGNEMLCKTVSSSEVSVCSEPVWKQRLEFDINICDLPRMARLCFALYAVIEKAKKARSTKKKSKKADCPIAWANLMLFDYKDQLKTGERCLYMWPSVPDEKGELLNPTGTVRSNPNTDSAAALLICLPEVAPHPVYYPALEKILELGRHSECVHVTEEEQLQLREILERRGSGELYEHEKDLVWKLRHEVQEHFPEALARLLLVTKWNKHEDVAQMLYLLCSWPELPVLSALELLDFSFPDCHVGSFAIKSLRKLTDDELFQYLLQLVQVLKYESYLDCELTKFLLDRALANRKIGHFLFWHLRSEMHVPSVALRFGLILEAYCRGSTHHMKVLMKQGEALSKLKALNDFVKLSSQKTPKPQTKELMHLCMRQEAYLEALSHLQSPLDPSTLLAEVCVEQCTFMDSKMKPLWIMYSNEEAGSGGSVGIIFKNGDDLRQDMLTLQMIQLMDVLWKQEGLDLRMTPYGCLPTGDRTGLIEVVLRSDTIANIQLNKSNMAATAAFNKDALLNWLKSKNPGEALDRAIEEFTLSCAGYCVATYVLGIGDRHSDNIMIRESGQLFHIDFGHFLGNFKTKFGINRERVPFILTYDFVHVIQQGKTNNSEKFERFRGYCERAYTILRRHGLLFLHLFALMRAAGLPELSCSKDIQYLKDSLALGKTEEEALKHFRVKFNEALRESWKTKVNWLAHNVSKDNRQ

Compound | onset of disease in a model of systemic lupus erythematosis [1] | efficacy in a mouse model of rheumatoid arthritis [2] | inflammation and disease in a murine model of asthma (murine model of asthma) | activity against any protein kinases tested (protein kinases) | passive cutaneous anaphylaxis (PCA) [3] | inhibition of p110δ (p110δ)
O=C1NC(=O)/C(=C\c2ccc3nccnc3c2)S1 [AS 605240] | delay onset of disease | efficacious | – | – | – | –
Cc1ccccc1-n1c(Cn2cnc3c(N)ncnc32)nc2cccc(C)c2c1=O [IC87114] | – | – | significantly ameliorate | no activity | significantly reduced | high nanomolar range (triple digit)
